Reference: ChEMBL document CHEMBL4420060, “Combinatorial therapies for the treatment of neoplasias using the opioid growth factor receptor” (2013)
Activity calls are given as the source filed them. The rule behind the calls is not given here.

What was measured:
UMSCC1 [1] = assay: Induction of cell cycle arrest in human UM-SCC-1 cells assessed as accumulation at G1/S phase after 6 hrs by flow cytometry; assay type: functional, cell-based
UMSCC1 [2] = assay: Induction of cell cycle arrest in human UM-SCC-1 cells assessed as accumulation at G1/S phase in presence of OGF after 6 hrs by flow cytometry; assay type: functional, cell-based
UMSCC1 [3] = assay: Induction of cell cycle arrest in human UM-SCC-1 cells assessed as reduction in accumulation at G2/M phase in presence of OGF after 6 hrs by flow cytometry; assay type: functional, cell-based
MIA PaCa-2 [4] = assay: Antitumor activity against human MIAPaCa2 cells xenografted in athymic BALB/c nu/nu nude mouse assessed as tumor incidence at 120 mg/kg dosed every 3 days and co-treated with 10 mg/kg OGF and measured on day 16 after tumor cell inoculation; assay type: functional
MIA PaCa-2 [5] = assay: Antitumor activity against human MIAPaCa2 cells xenografted in athymic BALB/c nu/nu nude mouse assessed as time delay in visible tumor development at 120 mg/kg dosed every 3 days and co-treated with 10 mg/kg OGF relative to control; assay type: functional
UMSCC1 [6] = assay: Antitumor activity against human UM-SCC-1 cells xenografted in nu/nu mouse assessed as latency time for measurable (62.5 mm3) tumors at 120 mg/kg dosed every 3 days (Rvb <=14 days); assay type: functional
UMSCC1 [7] = assay: Antitumor activity against human UM-SCC-1 cells xenografted in nu/nu mouse assessed as latency time for measurable (62.5 mm3) tumors at 120 mg/kg dosed every 3 days and co-treated with 10 mg/kg OGF (Rvb <=14 days); assay type: functional
UMSCC1 [8] = assay: Antitumor activity against human UM-SCC-1 cells xenografted in nu/nu mouse assessed as reduction in tumor measured on 4 to 36 day of measurable tumors at 120 mg/kg dosed every 3 days relative to control; assay type: functional, organism-based
MIA PaCa-2 [9] = assay: Growth inhibition of human MIAPaCa2 cells assessed as decrease in cell number at 0.01 uM incubated for 48 hrs in presence of 1 uM OGF by trypan blue staining assay relative to control; assay type: functional
MIA PaCa-2 [10] = assay: Growth inhibition of human MIAPaCa2 cells assessed as decrease in cell number at 0.01 uM incubated for 72 hrs in presence of 1 uM OGF by MTS assay relative to control; assay type: functional
PANC-1 = assay: Growth inhibition of human PANC1 cells assessed as decrease in cell number at 0.01 uM incubated for 72 hrs by MTS assay relative to control; assay type: functional; settings: PANC-1, 72 h, read-out: GI
Mus musculus = assay: Effect on plasma OGF level in athymic BALB/c nu/nu nude mouse xenografted with MIAPaCa2 cells at 120 mg/kg dosed every 3 days by radioimmunoassay; assay type: functional, organism-based
MIA PaCa-2 [11] = assay: Antitumor activity against human MIAPaCa2 cells xenografted in athymic BALB/c nu/nu nude mouse assessed as reduction in tumor weight at 120 mg/kg dosed every 3 days and co-treated with 10 mg/kg OGF measured on day 45 after tumor cell inoculation; assay type: functional; parameters: scale not given: the % may be the effect or the level left
MIA PaCa-2 [12] = assay: Antitumor activity against human MIAPaCa2 cells xenografted in athymic BALB/c nu/nu nude mouse assessed as tumor incidence at 10 mg/kg dosed daily measured on day 10 after tumor cell inoculation (reference value: 80%); assay type: functional
MIA PaCa-2 [13] = assay: Antitumor activity against human MIAPaCa2 cells xenografted in athymic BALB/c nu/nu nude mouse assessed as tumor incidence at 120 mg/kg dosed every 3 days and co-treated with 10 mg/kg OGF measured on day 10 after tumor cell inoculation (reference value: 80%); assay type: functional
MIA PaCa-2 [14] = assay: Antitumor activity against human MIAPaCa2 cells xenografted in athymic BALB/c nu/nu nude mouse assessed as effect on tumor incidence at 10 mg/kg dosed daily measured on day 16 after tumor cell inoculation relative to control; assay type: functional, organism-based
MIA PaCa-2 [15] = assay: Antitumor activity against human MIAPaCa2 cells xenografted in athymic BALB/c nu/nu nude mouse assessed as effect on tumor incidence at 120 mg/kg dosed every 3 days measured on day 16 after tumor cell inoculation relative to control; assay type: functional, organism-based
MIA PaCa-2 [16] = assay: Antitumor activity against human MIAPaCa2 cells xenografted in athymic BALB/c nu/nu nude mouse assessed as effect on tumor incidence at 120 mg/kg dosed every 3 days and co-treated with 10 mg/kg OGF measured on day 16 after tumor cell inoculation relative to control; assay type: functional, organism-based
MIA PaCa-2 [17] = assay: Antitumor activity against human MIAPaCa2 cells xenografted in athymic BALB/c nu/nu nude mouse assessed as latency time for visible tumor at 10 mg/kg dosed daily measured on day 10 after tumor cell inoculation (reference value: 10.1 +/- 1.8 days); assay type: functional
MIA PaCa-2 [18] = assay: Antitumor activity against human MIAPaCa2 cells xenografted in athymic BALB/c nu/nu nude mouse assessed as latency time for visible tumor at 120 mg/kg dosed every 3 days and co-treated with 10 mg/kg OGF measured on day 10 after tumor cell inoculation (reference value: 10.1 +/- 1.8 days); assay type: functional
MIA PaCa-2 [19] = assay: Antitumor activity against human MIAPaCa2 cells xenografted in athymic BALB/c nu/nu nude mouse assessed as latency time for measurable tumor at 120 mg/kg dosed every 3 days and co-treated with 10 mg/kg OGF measured on day 10 after tumor cell inoculation (reference value: 13.2 +/- 1.8 days); assay type: functional
[20] = Toxicity in athymic BALB/c nu/nu nude mouse xenografted with human MIAPaCa2 cells assessed as body weight at 10 mg/kg dosed daily measured on day 45 after tumor cell inoculation (reference value: 33.3 +/- 1 g); assay type: organism-based; settings: in vivo
[21] = Toxicity in athymic BALB/c nu/nu nude mouse xenografted with human MIAPaCa2 cells assessed as body weight at 120 mg/kg dosed every 3 days and co-treated with 10 mg/kg OGF measured on day 45 after tumor cell inoculation (reference value: 33.3 +/- 1 g); assay type: organism-based; settings: in vivo, 72 h
MIA PaCa-2 [22] = assay: Antitumor activity against human MIAPaCa2 cells xenografted in athymic BALB/c nu/nu nude mouse assessed tumor weight at 10 mg/kg dosed daily measured on day 45 after tumor cell inoculation (reference value: 5.5 +/- 1 g); assay type: functional
MIA PaCa-2 [23] = assay: Antitumor activity against human MIAPaCa2 cells xenografted in athymic BALB/c nu/nu nude mouse assessed tumor weight at 120 mg/kg dosed every 3 days and co-treated with 10 mg/kg OGF measured on day 45 after tumor cell inoculation (reference value: 5.5 +/- 1 g); assay type: functional
MIA PaCa-2 [24] = assay: Antitumor activity against human MIAPaCa2 cells xenografted in athymic BALB/c nu/nu nude mouse assessed tumor volume at 120 mg/kg dosed every 3 days and co-treated with 10 mg/kg OGF measured on day 45 after tumor cell inoculation (reference value: 8935 +/- 1694 mm3); assay type: functional
MIA PaCa-2 [25] = assay: Antitumor activity against human MIAPaCa2 cells xenografted in athymic BALB/c nu/nu nude mouse assessed spleen weight at 10 mg/kg dosed daily measured on day 45 after tumor cell inoculation (reference value: 761 +/- 61 mg); assay type: functional
UMSCC1 [26] = assay: Growth inhibition of human UM-SCC-1 cells assessed as decrease in cell number at 0.01 uM in presence of 1 uM opioid antagonist naloxone incubated for 24 to 96 hrs by MTS assay relative to control; assay type: functional, cell-based

SMILES: Nc1ccn([C@@H]2O[C@H](CO)[C@@H](O)C2(F)F)c(=O)n1 [GEMCITABINE]
- Activity (UMSCC1 [1]): Active
- Activity (UMSCC1 [2]): Active
- Activity (UMSCC1 [3]): Active
- Activity (MIA PaCa-2 [4]): 0%
- Time (MIA PaCa-2 [5]): 6 days
- Time (UMSCC1 [6]): <=2 weeks
- Time (UMSCC1 [7]): 20 days
- Activity (UMSCC1 [8]): Active
- growth inhibition (GI) (MIA PaCa-2 [9]): 26.3%
- growth inhibition (GI) (MIA PaCa-2 [10]): 49%
- inhibition of growth at 0.01 µM (PANC-1): 54%
- Activity (Mus musculus): inactive
- Activity (MIA PaCa-2 [11]): 85%
- Activity (MIA PaCa-2 [12]): 60%
- Activity (MIA PaCa-2 [13]): 0%
- Activity (MIA PaCa-2 [14]): inactive
- Activity (MIA PaCa-2 [15]): inactive
- Activity (MIA PaCa-2 [16]): inactive
- Time (MIA PaCa-2 [17]): 10.7 days
- Time (MIA PaCa-2 [18]): 16.2 days
- Time (MIA PaCa-2 [19]): 19.5 days
- Activity [20]: 31.4 g
- Activity [21]: 30.6 g
- Activity (MIA PaCa-2 [22]): 3.5 g
- Activity (MIA PaCa-2 [23]): 0.8 g
- Activity (MIA PaCa-2 [24]): 1477 mm3
- Activity (MIA PaCa-2 [25]): 606 mg
- growth inhibition (GI) (UMSCC1 [26]): Active
